Source: patent US20240400591A1 (Jacobio Pharmaceuticals Co., Ltd., priority 2021, published 2024)
Like-named read-outs stand apart in the source and are kept apart here. Each block holds one compound with its values, some of them ahead of it.

Tests used:
[1] = molecular target: T1, His-p53 Y220C (94-294) protein (Homo sapiens, UniProt P04637, Y220C); assay: In vitro DNA binding assay (HTRF); format: biochemical; details: % activation normalized to 2 μM Ref-1a high control
T1 construct: His-p53 Y220C (94-294) protein

[2] = tested on: NUGC-3_P53_Luc single clonal cell line (p53 Y220C); assay: Reporter gene assay (p53 RE luciferase); format: cell-based
Summary of the method: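 Luminescence normalised to DMSO-only (0%) and 10 μM Ref-1a (100%) wells gives % activity, fitted by 4-parameter logistic or Excel to yield EC50 at 50%. Reporter line: NUGC-3 with p53 response element-luc2P, compound-treated 6 h at 37 °C.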

[3] = tested on: NUGC3 (P53 Y220C); assay: Cell viability assay (CellTiter-Glo, 6 days), NUGC3; format: cell-based
Summary of the method: (§1)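 After a 6-day compound exposure following overnight plating, ATP luminescence (CellTiter-Glo) gave percent viability relative to DMSO-treated cells and cell-free medium controls. IC50 = concentration at 50% viability, from 4-parameter logistic or Excel fit.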

[4] = tested on: NUGC4 (P53 WT); assay: Cell viability assay (CellTiter-Glo, 6 days), NUGC4; format: cell-based
Summary of the method: as §1

[5] = Homo sapiens, NUGC-3, luciferase reporter, 6 hours, normalized to Ref-1a (10 μM) high control, read-out: p53(Y220C)_NUGC-3 EC50
[6] = Homo sapiens, NUGC-3, 144 h, cell viability, 6 days, CellTiter-Glo, read-out: NUGC3 (P53 Y220C) IC50
[7] = Homo sapiens, NUGC-4, 144 h, cell viability, 6 days, CellTiter-Glo, read-out: NUGC4 (P53 WT) IC50
[8] = luciferase reporter, 6 hours, normalized to Ref-1a (10 μM) high control, read-out: p53(Y220C)_NUGC-3 EC50
[9] = cell viability, 6 days, CellTiter-Glo, read-out: NUGC3 (P53 Y220C) IC50
[10] = cell viability, 6 days, CellTiter-Glo, read-out: NUGC4 (P53 WT) IC50
[11] = Homo sapiens, NUGC-3, 6 h, luciferase reporter, 6 hours, normalized to Ref-1a (10 μM) high control, read-out: p53(Y220C)_NUGC-3 EC50

EC50 [1]: 117 nM
Compound: CN1CC[C@@H](Nc2cccc3c(CC(F)(F)F)c(C#CCNC(=O)c4ccn(C(C)(C)C)c4)sc23)[C@@H](F)C1 (racemic) [Example 130, 1-tert-butyl-N-[3-[7-[((Z)-3-fluoro-1-methyl-4-piperidyl)amino]-3-(2,2,2-trifluoroethyl)benzothiophen-2-yl]prop-2-ynyl]pyrrole-3-carboxamide]
EC50 [2, 5]: 0.36 µM
IC50 [3, 6]: 3.55 µM
IC50 [4, 7]: 6.85 µM

Compound: COCCNC(=O)c1cc(P(C)(C)=O)ccc1NCC#Cc1sc2c(N[C@@H]3CCN(C)C[C@@H]3Cl)cccc2c1CC(F)(F)F [Example 219, 2-((3-(7-(((3S,4R)-3-chloro-1-methylpiperidin-4-yl)amino)-3-(2,2,2-trifluoroethyl)benzo[b]thiophen-2-yl)prop-2-yn-1-yl)amino)-5-(dimethylphosphoryl)-N-(2-methoxyethyl)benzamide]
EC50 [1]: 45 nM
EC50 ([2]; Homo sapiens, NUGC-3, 6 h, read-out: p53(Y220C)_NUGC-3 EC50 (μM)): 0.09 µM
IC50 ([3]; Homo sapiens, NUGC-3, 144 h, read-out: NUGC3 (P53 Y220C) IC50 (μM)): 0.36 µM
IC50 ([4]; Homo sapiens, NUGC-4, 144 h, read-out: NUGC4 (P53 WT) IC50 (μM)): 19.5 µM

EC50 [1]: 47 nM
Compound: COc1cc(P(C)(C)=O)ncc1NCC#Cc1sc2c(N[C@@H]3CCN(C)C[C@@H]3F)cccc2c1CC(F)(F)F [Example 92, (5-((3-(7-(((3S,4R)-3-fluoro-1-methylpiperidin-4-yl)amino)-3-(2,2,2-trifluoroethyl)benzo[b]thiophen-2-yl)prop-2-yn-1-yl)amino)-4-methoxypyridin-2-yl)dimethylphosphine oxide]
EC50 [2, 5]: 0.18 µM
IC50 [3, 6]: 0.99 µM
IC50 [4, 7]: 13.4 µM

EC50 [1]: 82 nM
Compound: COc1cc(P(C)(C)=O)ccc1NCC#Cc1sc2c(N[C@@H]3CCN(C4COC4)C[C@@H]3F)cccc2c1CC(F)(F)F (racemic) [Example 75, (4-((3-(7-(((Z)-3-fluoro-1-(oxetan-3-yl)piperidin-4-yl)amino)-3-(2,2,2-trifluoroethyl)benzo[b]thiophen-2-yl)prop-2-yn-1-yl)amino)-3-methoxyphenyl)dimethylphosphine oxide]
EC50 [2, 5]: 0.16 µM
IC50 [3, 6]: 1.02 µM
IC50 [4, 7]: 5.34 µM

EC50 [1]: 55 nM
Compound: COc1cc(P(C)(C)=O)c(F)cc1NCC#Cc1sc2c(NC3CCN(C)CC3F)cccc2c1CC(F)(F)F (stereo not drawn) [Example 52, (2-fluoro-4-((3-(7-(((Z)-3-fluoro-1-methylpiperidin-4-yl)amino)-3-(2,2,2-trifluoroethyl)benzo[b]thiophen-2-yl)prop-2-yn-1-yl)amino)-5-methoxyphenyl)dimethylphosphine oxide]
EC50 [2, 8]: 0.23 µM
IC50 [3, 9]: 0.75 µM
IC50 [4, 10]: 4.58 µM

Compound: CNC(=O)c1ccc(NCC#Cc2cc3c(N[C@@H]4CCN(C)C[C@@H]4F)cccc3n2CC(F)(F)F)c(OC)c1 [Example 110, 4-((3-(4-(((3S,4R)-3-fluoro-1-methylpiperidin-4-yl)amino)-1-(2,2,2-trifluoroethyl)-1H-indol-2-yl)prop-2-yn-1-yl)amino)-3-methoxy-N-methylbenzamide]
EC50 [1]: 27 nM
EC50 [2, 11]: 0.04 µM
IC50 [3, 6]: 1.02 µM
IC50 [4, 7]: 14.2 µM

Compound: COc1cc(P(C)(C)=O)ccc1NCC#Cc1sc2c(N[C@H]3CCN(C)C[C@H]3C)cccc2c1CC(F)(F)F [Example 125, (4-((3-(7-(((3R,4S)-1,3-dimethylpiperidin-4-yl)amino)-3-(2,2,2-trifluoroethyl)benzo[b]thiophen-2-yl)prop-2-yn-1-yl)amino)-3-methoxyphenyl)dimethylphosphine oxide]
EC50 [1]: 54 nM
EC50 [2, 11]: 0.18 µM
IC50 [3, 6]: 1.27 µM
IC50 [4, 7]: 2.57 µM

EC50 [1]: 58 nM
Compound: COc1cc(P(C)(C)=O)ccc1NCC#Cc1sc2c(NC3CC4CN(C)CC4C3)cccc2c1CC(F)(F)F (stereo not drawn) [Example 182]
EC50 [2, 5]: 0.48 µM
IC50 [3, 6]: 2.03 µM
IC50 [4, 7]: 3.74 µM

Compound: COc1cc(P(C)(C)=O)ccc1NCC#Cc1sc2c(N[C@H]3CCN(C4CCOCC4)C[C@H]3F)cccc2c1CC(F)(F)F [Example 148, (4-((3-(7-(((3R,4S)-3-fluoro-1-(tetrahydro-2H-pyran-4-yl)piperidin-4-yl)amino)-3-(2,2,2-trifluoroethyl)benzo[b]thiophen-2-yl)prop-2-yn-1-yl)amino)-3-methoxyphenyl)dimethylphosphine oxide]
EC50 [1]: 147 nM
EC50 [2, 11]: 0.21 µM
IC50 [3, 6]: 1.56 µM
IC50 [4, 7]: 3.08 µM

EC50 [1]: 48 nM
Compound: CN1CC[C@@H](Nc2cccc3c(CC(F)(F)F)c(C#CCNc4ccc(P(C)(C)=O)cc4C(=O)NC4CCOCC4)sc23)[C@@H](F)C1 [Example 216, 5-(dimethylphosphoryl)-2-((3-(7-(((3S,4R)-3-fluoro-1-methylpiperidin-4-yl)amino)-3-(2,2,2-trifluoroethyl)benzo[b]thiophen-2-yl)prop-2-yn-1-yl)amino)-N-(tetrahydro-2H-pyran-4-yl)benzamide]
EC50 [2, 5]: 0.12 µM
IC50 [3, 6]: 0.27 µM
IC50 [4, 7]: > 50 µM

EC50 [1]: 72 nM
Compound: CNC(=O)c1cc(OC)c(NCC#Cc2sc3c(NC4CCN(C)CC4F)cccc3c2CC(F)(F)F)cn1 (stereo not drawn) [Example 60, 5-((3-(3-(2,2,2-trifluoroethyl)-7-(((Z)-3-fluoro-1-methylpiperidin-4-yl)amino)benzo[b]thiophen-2-yl)prop-2-yn-1-yl)amino)-4-methoxy-N-methylpicolinamide]
EC50 [2, 8]: 0.47 µM
IC50 [3, 9]: 1.95 µM
IC50 [4, 10]: 6.1 µM

EC50 [1]: 27 nM
Compound: CN1CC[C@@H](Nc2cccc3c(CC(F)(F)F)c(C#CCNc4ccc(P(C)(C)=O)cc4C(N)=O)sc23)[C@@H](F)C1 [Example 199, 5-(dimethylphosphoryl)-2-((3-(7-(((3S,4R)-3-fluoro-1-methylpiperidin-4-yl)amino)-3-(2,2,2-trifluoroethyl)benzo[b]thiophen-2-yl)prop-2-yn-1-yl)amino)benzamide]
EC50 [2, 5]: 0.06 µM
IC50 [3, 6]: 0.36 µM
IC50 [4, 7]: 49 µM

EC50 [1]: 40 nM
Compound: COc1cc([S@](C)(=N)=O)ccc1NCC#Cc1sc2c(N[C@@H]3CCN(C)C[C@@H]3F)cccc2c1CC(F)(F)F [Example 227, (R)-(4-((3-(7-(((3S,4R)-3-fluoro-1-methylpiperidin-4-yl)amino)-3-(2,2,2-trifluoroethyl)benzo[b]thiophen-2-yl)prop-2-yn-1-yl)amino)-3-methoxyphenyl)(imino)(methyl)-16-sulfanone]
EC50 [2, 8]: 0.04 µM
IC50 [3, 9]: 0.28 µM
IC50 [4, 10]: 17.6 µM

EC50 [1]: 58 nM
Compound: CN1CC[C@@H](Nc2cccc3c(CC(F)(F)F)c(C#CCNc4ccc(P(C)(C)=O)cc4-c4ncon4)sc23)[C@@H](F)C1 [Example 213, (4-((3-(7-(((3S,4R)-3-fluoro-1-methylpiperidin-4-yl)amino)-3-(2,2,2-trifluoroethyl)benzo[b]thiophen-2-yl)prop-2-yn-1-yl)amino)-3-(1,2,4-oxadiazol-3-yl)phenyl)dimethylphosphine oxide]
EC50 [2, 5]: 0.22 µM
IC50 [3, 6]: 0.37 µM
IC50 [4, 7]: 9.59 µM

Compound: COc1cc(P(C)(C)=O)ccc1NCC#Cc1sc2c(NC3CCN(C)CC3F)cccc2c1CC#N (racemic) [Example 107, 2-(2-(3-((4-(dimethylphosphoryl)-2-methoxyphenyl)amino)prop-1-yn-1-yl)-7-(((Z)-3-fluoro-1-methylpiperidin-4-yl)amino)benzo[b]thiophen-3-yl)acetonitrile]
EC50 [1]: 60 nM
EC50 [2, 5]: 0.96 µM
IC50 [3, 6]: 7.25 µM
IC50 [4, 7]: 20.6 µM

EC50 [1]: 127 nM
Compound: COc1cc(P(C)(C)=O)ccc1NCC#Cc1sc2c(N[C@@H]3CCN(C4CC4)C[C@@H]3F)cccc2c1CC(F)(F)F (racemic) [Example 74, (4-((3-(7-(((Z)-1-cyclopropyl-3-fluoropiperidin-4-yl)amino)-3-(2,2,2-trifluoroethyl)benzo[b]thiophen-2-yl)prop-2-yn-1-yl)amino)-3-methoxyphenyl)dimethylphosphine oxide]
EC50 [2, 5]: 0.25 µM
IC50 [3, 6]: 2.05 µM
IC50 [4, 7]: 2.73 µM

Compound: COc1cc(P(=O)(C2CC2)C2CC2)ccc1NCC#Cc1sc2c(N[C@@H]3CCN(C)C[C@@H]3F)cccc2c1CC(F)(F)F [Example 141, dicyclopropyl(4-((3-(7-(((3S,4R)-3-fluoro-1-methylpiperidin-4-yl)amino)-3-(2,2,2-trifluoroethyl)benzo[b]thiophen-2-yl)prop-2-yn-1-yl)amino)-3-methoxyphenyl)phosphine oxide]
EC50 [1]: 49 nM
EC50 [2, 11]: 0.09 µM
IC50 [3, 6]: 1.13 µM
IC50 [4, 7]: 9.06 µM

Compound: COc1cc(P(C)(C)=O)ccc1NCC#Cc1sc2c(N[C@@H]3CCN(C(C)C)C[C@@H]3F)cccc2c1CC(F)(F)F (racemic) [Example 86, (4-((3-(7-(((Z)-3-fluoro-1-isopropylpiperidin-4-yl)amino)-3-(2,2,2-trifluoroethyl)benzo[b]thiophen-2-yl)prop-2-yn-1-yl)amino)-3-methoxyphenyl)dimethylphosphine oxide]
EC50 [1]: 37 nM
EC50 [2, 11]: 0.14 µM
IC50 [3, 6]: 0.79 µM
IC50 [4, 7]: 4.56 µM
